In PubChem BioAssay AID608 (Sanford-Burnham Center for Chemical Genomics, 2007):
Calls of active or inactive are those of the source. No rule for the calls is given here.

Each molecule was assayed against Peptidyl-prolyl cis-trans isomerase FKBP1A (Homo sapiens) (UniProt P62942) (assay: small-molecule binding to FKBP12 – biophysical, NMR detection (AID 608)). Conditions: purified FKBP12.
Chain of Peptidyl-prolyl cis-trans isomerase FKBP1A (Homo sapiens) (P62942 whole entry, looked up): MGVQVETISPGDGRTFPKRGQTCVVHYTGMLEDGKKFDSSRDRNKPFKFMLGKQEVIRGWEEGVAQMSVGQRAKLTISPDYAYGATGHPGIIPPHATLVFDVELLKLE

| SMILES | Kd |
| --- | --- |
| NCc1ccc(-c2csnn2)cc1 | > 4 mM (inactive) |
| CC(=O)OC1CCC2(C)C3CC(=O)C4(C)C(CC5OC6(CCC(C)CO6)[C@@H](C)C54)C3CC[C@H]2C1 (stereo partly specified) | > 4 mM (inactive) |
| CCOC(=O)c1cnc2sccn2c1=O | > 4 mM (inactive) |
| Cn1cc(C(=O)N/N=C/c2ccccc2)ccc1=O | > 4 mM (inactive) |
| CC(=O)Nc1ccc(-c2ccc3nncn3n2)cc1 | > 4 mM (inactive) |
| O=C1CN2C(=N1)N(Cc1ccccc1)c1ccccc12 | > 4 mM (inactive) |
| COCCn1c(N)nc2c1c(=O)[nH]c(=O)n2C | > 4 mM (inactive) |
| NC(=O)Cn1cnc2ccccc21 | > 4 mM (inactive) |
| N#Cc1nc(N2CCCCC2)nc(N2CCOCC2)n1 | > 4 mM (inactive) |
| O=c1[nH]c(N2CCOCC2)nc2ccccc12 | > 4 mM (inactive) |
| O=C(Nc1cnc2ccccn2c1=O)c1ccc(F)cc1 | > 4 mM (inactive) |
| NCCCCN | > 4 mM (inactive) |
| COc1cc(OC)c(-c2c(OC)cc(OC)cc2OC)c(OC)c1 | > 4 mM (inactive) |
| Cc1n[nH]c(=O)c2ncn(C)c12 | > 4 mM (inactive) |
| CN(C)c1n[nH]c(=O)[nH]c1=O | > 4 mM (inactive) |
| COc1ccc2c(c1)OC/C(=C/c1ccc(OC)c(OC)c1)C2=O | > 4 mM (inactive) |
| CCn1cnc2cc([N+](=O)[O-])ccc2c1=O | > 4 mM (inactive) |
| CCC(=O)OC1[C@@H]2CC3=C4CC(=O)O[C@@H](c5ccoc5)[C@]4(C)CCC3C(C)(C2=O)[C@@H](CC(=O)OC)C1(C)C (stereo partly specified) | > 4 mM (inactive) |
| Cc1ccc(C(=O)N2CCOCC2)cc1Cl | > 4 mM (inactive) |
| Cc1nnsc1C(=O)Nc1ccccn1 | > 4 mM (inactive) |
| C[C@@H]1OC(O[C@H]2C(O[C@H]3CC[C@@]4(C)C(CC[C@]5(C)C4CC=C4C6CC(C)(C)CC[C@]6(C(=O)O)CC[C@]45C)[C@]3(C)CO)OC[C@H](O)[C@@H]2O)[C@H](O)[C@H](O)[C@H]1O (stereo partly specified) | > 4 mM (inactive) |
| O=C1CSC(=Nc2ccc(Cl)cc2)N1 | > 4 mM (inactive) |
| Cc1nc(-c2ccc(C(=O)N3CCOCC3)cc2)cs1 | > 4 mM (inactive) |
| Cc1ncoc1C(=O)Nc1ncc([N+](=O)[O-])s1 | > 4 mM (inactive) |

| SMILES | Kd |
| --- | --- |
| O=C(Nc1ccc2c(c1)OCO2)c1ccc(=O)[nH]n1 | > 4 mM (inactive) |
| CC(=O)NC1=NN(c2ccccc2)C(=O)C1 | > 4 mM (inactive) |
| CN1CCN(S(=O)(=O)c2ccc(=O)[nH]c2)CC1 | > 4 mM (inactive) |
| CC(=O)NN1C(=O)/C(=C\c2ccc(O)cc2)SC1=S | > 4 mM (inactive) |
| NCc1ccc(CN2CCOCC2)cc1 | > 4 mM (inactive) |
| Cc1onc(-c2ccc(F)cc2)c1C(=O)O | > 4 mM (inactive) |
| Cc1cc(C)n(C2CCS(=O)(=O)C2)n1 (stereo unspecified) | > 4 mM (inactive) |
| Cn1c(CO)nc2cc(N)ccc21 | > 4 mM (inactive) |
| Nc1nc2ncc(=O)[nH]c2c(=O)[nH]1 | > 4 mM (inactive) |
| CC1CN(Cc2ccccn2)CCC1=O (stereo unspecified) | > 4 mM (inactive) |
| CC1CN(C(=O)c2sc3cccc(F)c3c2Cl)CC(C)O1 (stereo unspecified) | > 13.6 mM (inactive) |
| Cc1cc(C(F)(F)F)nn1CC(N)=O | > 4 mM (inactive) |
| CC[C@@H]1[C@@H](O)N2C3C[C@H]1C1C(O)[C@]4(C[C@@H]12)c1ccccc1N(C)[C@@H]34 (stereo partly specified) | > 4 mM (inactive) |
| O=C(c1sc2cc(Cl)ccc2c1Cl)N1CCOCC1 | inactive |
| O=C1CCCC2C3CC(CN12)[C@@H]1CCCCN1C3 (stereo partly specified) | > 4 mM (inactive) |
| O=C1C2C3C=CC(O3)C2C(=O)N1c1ccccc1 (stereo unspecified) | > 4 mM (inactive) |
| Nc1ccc(Cl)nn1 | > 4 mM (inactive) |
| Cc1c(C(=O)N2CCOCC2)oc2c1C(=O)CC(C)(C)C2 | > 4 mM (inactive) |
| N=Cc1c(O)n(-c2cccc(Cl)c2)c(=O)[nH]c1=O | > 4 mM (inactive) |
| Cc1ccc(OCC(=O)N2CCOCC2)cc1C | inactive |
| COC1C(O)C(O[C@H]2CC[C@]3(C=O)C4C(CC[C@]3(O)C2)[C@@]2(O)CC[C@H](C3=CC(=O)OC3)[C@@]2(C)C[C@H]4OC(C)=O)OC(C)C1OC(C)=O (stereo partly specified) | > 4 mM (inactive) |
| COc1ccc(N2C(=O)CCC2=O)c(OC)c1 | > 4 mM (inactive) |
| NC1=NC(=O)/C(=C\c2ccccc2)S1 | > 4 mM (inactive) |
| Cc1ccc2c(c1)=C(c1sc(N)nc1O)C(=O)N=2 | > 4 mM (inactive) |

| SMILES | Kd |
| --- | --- |
| Cc1nc(N)sc1C(=O)Nc1nccs1 | > 4 mM (inactive) |
| NC12CC3CC(C1)CC(O)(C3)C2 | > 4 mM (inactive) |
| O=c1c2ccccc2oc2ccccc12 | > 4 mM (inactive) |
| CN1CCN(Cc2cccnc2)CC1 | > 4 mM (inactive) |
| O=C(Nc1ccccc1[N+](=O)[O-])c1ccc(=O)[nH]n1 | > 4 mM (inactive) |
| CCn1nnc(NC(=O)c2ccccc2Br)n1 | > 4 mM (inactive) |
| O=C(O)c1cc(O)c(O)c(O)c1 | > 4 mM (inactive) |
| COc1cc2[nH]c(=S)n(C)c(=O)c2cc1OC | > 4 mM (inactive) |
| O=C(O)Cn1c(C(F)(F)F)nc2ccccc21 | > 4 mM (inactive) |
| OC12CC3CC(CC(C3)C1)C2 | > 4 mM (inactive) |
| COc1ccccc1N1C(=N)SCC1=O | > 4 mM (inactive) |
| COc1c2ccoc2cc2oc(=O)ccc12 | > 4 mM (inactive) |
| Cc1cc(C)n2nc(SCC(=O)c3ccccc3)nc2n1 | > 4 mM (inactive) |
| COn1c(=O)c(C)[n+]([O-])c2ccccc21 | > 4 mM (inactive) |
| COc1cc(/C=C/C(=O)O)cc(OC)c1OC | > 4 mM (inactive) |
| Nc1ccc(S(=O)(=O)Nc2ccc(F)cc2F)cc1 | > 4 mM (inactive) |
| CC(C)NC(=O)c1cc(=O)n(C)c(=O)n1C | > 4 mM (inactive) |
| OC1CCN(c2nccc(C(F)(F)F)n2)CC1 | > 4 mM (inactive) |
| CCC[C@@H]1CCCCN1 | > 4 mM (inactive) |
| O=C(NCN1CCOCC1)c1cnccn1 | > 4 mM (inactive) |
| C[C@H](CCC(=O)O)[C@H]1CCC2C3C(CC[C@@]21C)[C@@]1(C)CC[C@@H](O)C[C@H]1C[C@H]3O (stereo partly specified) | > 4 mM (inactive) |
| O=C1Cc2ccccc2N1c1ccccc1 | > 4 mM (inactive) |
| CCN1CCN(c2ncnc3c2nnn3C)CC1 | > 4 mM (inactive) |
| CC(=O)Nc1c(C#N)c(C(C)(C)C)cn1C | > 4 mM (inactive) |

| SMILES | Kd |
| --- | --- |
| O=C(NC1=NCCS1)c1csc2ccccc12 | > 4 mM (inactive) |
| O=C(Cn1cncn1)c1ccc(F)c(F)c1 | > 4 mM (inactive) |
| O=C(Nc1ccc2c(c1)CCC2)c1cnccn1 | > 4 mM (inactive) |
| C=C1CCC2C(CC2(C)C)C(=C)CC/C1=N/O (stereo unspecified) | > 4 mM (inactive) |
| CC(=O)Nc1ccccc1-c1ccccc1NC(C)=O | > 4 mM (inactive) |
| C/C=C/C(=O)Nc1ccc(NC(C)=O)cc1 | > 4 mM (inactive) |
| O=C(Nc1cnccn1)c1cccnc1 | > 4 mM (inactive) |
| Cc1ccccc1CSc1nncn1N | > 4 mM (inactive) |
| CCn1nnc(NC(=O)c2cc3ccccc3o2)n1 | > 4 mM (inactive) |
| COc1ccc(C(=O)/C=C2\NC(=S)NC2=O)cc1 | > 4 mM (inactive) |
| S=C(c1ccc2c(c1)OCO2)N1CCCC1 | > 4 mM (inactive) |
| Oc1cc(O)c2c(c1)O[C@H](c1ccc(O)c(O)c1)[C@@H](O)C2 | > 4 mM (inactive) |
| Cc1cc(-c2ccccc2)nc2cc(C(N)=O)nn12 | > 4 mM (inactive) |
| N#CC(O[C@@H]1O[C@H](CO[C@@H]2O[C@H](CO)[C@@H](O)[C@H](O)[C@H]2O)[C@@H](O)[C@H](O)[C@H]1O)c1ccccc1 (stereo partly specified) | > 4 mM (inactive) |
| CN1C(=O)c2ccc(C(=O)NCc3ccccc3)cc2C1=O | > 4 mM (inactive) |
| O=C(O)C1CC(=O)N(CCc2ccc(Cl)cc2)C1 (stereo unspecified) | > 4 mM (inactive) |
| Cn1c(O)c(/C=C2\C=CC=N2)c(=O)[nH]c1=O | > 4 mM (inactive) |
| COc1cc2nc(N3CCNCC3)nc(N)c2cc1OC | > 4 mM (inactive) |
| CC(=O)NC(=S)Nc1ccccc1C | > 4 mM (inactive) |
| CSc1nnc2[nH]c(=O)cc(N)n12 | > 4 mM (inactive) |
| CC(C)(C)C(=O)Nc1nnc(SCC(N)=O)s1 | > 4 mM (inactive) |
| COc1ccc2c(c1)OCc1c-2oc2cc(OC)ccc12 | > 4 mM (inactive) |
| Cc1sc2nc3n(c(=O)c2c1C)CCCS3 | > 4 mM (inactive) |
| Cc1cc(=O)oc2cc(O)c(O)cc12 | > 4 mM (inactive) |

| SMILES | Kd |
| --- | --- |
| COc1cccc(OCC(=O)N2CCOCC2)c1 | inactive |
| Cc1c(C(=O)Nc2ccccn2)oc2ccccc12 | > 4 mM (inactive) |
| CC(=O)O[C@H]1C[C@@H](OC(C)=O)C(C)(C)C2C[C@@H](OC(C)=O)[C@@]3(C)C4=CC(=O)O[C@@H](c5ccoc5)[C@]4(C)CCC3[C@]21C (stereo partly specified) | > 4 mM (inactive) |
| O=c1[nH]cnc2nc[nH]c12 | > 4 mM (inactive) |
| COc1c(-c2coc3cc4c(cc3c2=O)CC(O)C(C)(C)O4)ccc2c1C=CC(C)(C)O2 (stereo unspecified) | > 4 mM (inactive) |
| O=C(Nc1ccc2ccccc2c1)c1cnccn1 | > 4 mM (inactive) |
| O=c1c(O)c(-c2ccccc2)oc2ccccc12 | > 4 mM (inactive) |
| CC(C)CCCC(C)[C@H]1CCC2C3CC=C4C[C@@H](O)CC[C@]4(C)C3CC[C@@]21C (stereo partly specified) | > 4 mM (inactive) |
| Cc1nn(CC(=O)Nc2ccccc2)c(=O)c2ccccc12 | > 4 mM (inactive) |
| Cc1nc2ccc(C(=O)N3CCSCC3)cc2s1 | > 4 mM (inactive) |
| O=C(Nn1cnnc1)c1csc2c1CCCC2 | > 4 mM (inactive) |
| O=C(O)c1scc2c1CCCC2 | > 4 mM (inactive) |
| Cc1cc(C(=O)Nc2sc(C)c(C)c2C#N)c(C)o1 | > 4 mM (inactive) |
| O=C(Cc1ccccc1)Nc1c[nH]c(=O)[nH]c1=O | > 4 mM (inactive) |
| OCc1ccc(-n2ccnc2)cc1 | > 4 mM (inactive) |
| COc1ccccc1NC(=O)c1snnc1C | > 4 mM (inactive) |
| O=C(Nc1ccon1)c1ccc(Br)o1 | > 4 mM (inactive) |
| CC(=O)c1ccc[nH]1 | > 4 mM (inactive) |
| CN1CCn2c1nc(N1CCCCC1)nc2=O | > 4 mM (inactive) |
| CNc1nnc(CSc2nc(C)cc(C)n2)s1 | > 4 mM (inactive) |
